How the values were obtained:
HFD-induced obese rats [1] = experiment: HOMA-IR and euglycemic-hyperinsulinemic clamps after subcutaneous OT infusion; assay type: in vivo, rat; conditions: s.c. 50 nmol/day, 14 days
Procedure: Global and tissue-specific glucose utilization rates were measured by performing euglycemic-hyperinsulinemic clamps associated with the labeled 2-deoxyglucose technique as previously described (Vettor et al., 1994, Diabetologia, 37, 1202-1208). HFD-induced obese rats were overnight fasted and intraperitoneally anesthetized with Nembutal (75 mg/kg sodium pentobarbital; Abbott Laboratories, Chicago, Ill.). Total glucose utilization was measured during euglycemic-hyperinsulinemic clamps, as previously described (Vettor et al., 1994, above). At the end of the clamp, the in vivo insulin-stimulated glucose utilization index of individual tissues was determined by injecting a single bolus of labeled 2-deoxy-D-[1-3H]glucose (30 μCi; Amersham Biosciences UK, Little Chalfont, UK), as previously described (Vettor et al., 1994, above). […]
The beneficial effects of OT administration were assessed in the same rat model of high-fat diet induced obesity as in Example 1. […]
Insulinemia and glycemia were measured after an overnight fast before the euglycemic hyperinsulinemic clamps) and were used to calculate the “homeostasis model assessment of insulin resistance” (HOMA-IR). HOMA-IR was calculated as follows: (fasting serum insulin in mU/l)×(fasting blood glucose in mM)/22.5.
The effect of peripheral OT administration on high fat diet-induced insulin resistance was determined as described in Example 1.

[2] = system: differentiated 3T3-L1 adipocytes; experiment: Lipid metabolism in differentiated 3T3-L1 adipocytes in vitro; assay type: cell-based, Murine; conditions: 24 h incubation, 5 μM OT
Procedure: The in vitro effect of OT on lipid metabolism in differentiated 3T3-L1 adipocytes was assayed as follows. Murine 3T3-L1 fibroblasts were differentiated towards a […] phenotype as previously described (Olson et al., 1997, Mol. Cell. Biol., 2425-2435). In brief, cells were cultured in Dulbecco's modified eagle medium (DMEM) with 4.5 g/l glucose supplemented with 10% heat-inactivated depleted calf serum (DCS) at 37° C./8% CO2. Cells were induced to differentiate, two days post confluence, by sequential incubations with: DMEM 4.5 g/l glucose, 10% fetal bovine serum (FCS) containing 1 μg/ml insulin, 0.25 μM dexamethasone and 0.5 mM isobutylmethylxanthane (IBMX) for 4 days; DMEM 4.5 g/l glucose, 10% FCS containing insulin alone for an additional 4 days; DMEM 4.5 g/l glucose, 10% FCS for 3-4 days. Differentiation was considered achieved when more than 90% of cells display an accumulation of large lipid droplets in their cytoplasm.

HFD-induced obese rats [3] = experiment: High-fat diet-induced obesity rat model, i.c.v. OT infusion: body weight gain and food intake; assay type: in vivo; conditions: 14 days, compared with saline
Procedure: The beneficial metabolic effects of OT administration were assayed in the following high-fat diet-induced obesity model in rats.
Male Wistar (300-325 g) rats were purchased from Charles River (L′Arbresle, France) and housed in individual cages under conditions of controlled temperature (22° C.) and illumination (light on: 07:00-19:00 h). They were allowed free access to water and a 45% high fat diet (HFD) (metabolized energy, 4.56 kcal/g) (Ssniff® EF R/M acc. D12451 (I) mod., ssniff Spezialdiaten GmbH, Soest, Germany) for seven weeks. Body weight, food intake and water intake were recorded daily (08:30-09:30 h). All procedures were approved by the Ethic Committee of our University and were in accordance with the Swiss guidelines for animal experimentation.
To study the role of OT on metabolic homeostasis, the above male Wistar rats were rendered obese by 7 weeks of HFD 45% and were intracerebroventricularly (i.c.v.) infused with either OT (1.6 nmol/d) or saline during the last 2 weeks of the experiment.
After three weeks of HFD feeding, rats were submitted to surgical procedures. They were anesthetized with intramuscular injection of ketamine-xylasine (Ketalar®-Rompun®, Parke-Davis and Bayer, Leverkusen, Switzerland) at 40 and 9 mg/kg, respectively, and implanted with a cannula in the right lateral cerebral ventricle fixed on the skull with dental cement, as previously described (Rohner-Jeanrenaud et al., 1989, Endocrinology 124, 733-9). After one week of recovery, the drinking response to i.c.v. injection of Angiotensin II (5 ng/μl) (Novabiochem, Laüfelfingen, Switzerland) was measured to confirm the correct placement of the cannula. At the end of the fifth week of high fat diet feeding, osmotic minipumps (Alzet®, model 2001, Alza Corporation, Cupertino, Calif.) delivering oxytocin (NeoMPS®, Strasbourg, France) or its vehicle (NaCl 0.9%) were subcutaneously implanted and connected to the i.c.v. cannula via a polyethylene catheter, as previously described (Rohner-Jeanrenaud et al., 1989, above). OT was delivered at a dose of 1.6 nmol/day/rat or 16 nmol/day/rat during 14 days. A group of vehicle-infused rats was pair-fed to the amount of food consumed by OT-infused animals in order to assess the effects of OT independently from changes in food intake. The pair-feeding regimen consisted in giving one-third of the daily food amount in the morning and the remaining two-thirds just before onset of darkness. Rats were sacrificed using isoflurane anesthesia (Halocarbon Laboratories, River Edge, N.J.) and rapid decapitation between 09:00 and 13:00 h. Blood samples were collected into EDTA-coated tubes, centrifuged and plasma stored at −20° C. Tissues were rapidly removed, freeze-clamped, and stored at −80° C.

CC[C@H](C)[C@@H]1NC(=O)[C@H](Cc2ccc(O)cc2)NC(=O)[C@@H](N)CSSC[C@@H](C(=O)N2CCC[C@H]2C(=O)N[C@@H](CC(C)C)C(=O)NCC(N)=O)NC(=O)[C@H](CC(N)=O)NC(=O)[C@H](CCC(N)=O)NC1=O [OT, Cys-Tyr-Ile-Gln-Asn-Cys-Pro-Leu-Gly (SEQ ID NO: 1)]
glucose infusion rate (GIR) (HFD-induced obese rats [1]): significantly increased
HOMA-IR (HFD-induced obese rats [1]; compared to saline, not observed in pair-fed group): lower
OEA content [2]: increased
PPAR-alpha mRNA expression [2]: stimulatory effect
mRNA expression of all the lipid metabolism-related genes affected by central OT infusion [2]: increased
Scd1 mRNA expression ([2]; relative to effect in centrally infused rats): less marked
cumulative body weight gain (HFD-induced obese rats [3]; i.c.v. 1.6 nmol/d): more than fifty percent decrease
cumulative food intake (HFD-induced obese rats [3]; i.c.v. 1.6 nmol/d): without any effect
food efficiency (ratio of body weight gain to cumulative food intake) (HFD-induced obese rats [3]; i.c.v. 1.6 nmol/d): marked decrease
cumulative food intake (HFD-induced obese rats [3]; i.c.v. 16 nmol/d): decreased
body weight gain (HFD-induced obese rats [3]; i.c.v. 16 nmol/d, not observed in pair-fed group): significantly lower

Reference: patent publication US9101569B2, “Methods for the treatment of insulin resistance” (UNIVERSITE DE GENEVE, priority 2010, dated 2015)
